This note sets out measurements from patent US20240116985A1, “STAPLED PEPTIDES AND METHODS THEREOF” (priority 2020, published 2024).

A short description of one data set: CHI Log D procedure. In kind it is physicochemical.
Data set [1] addresses T1, full-length beta-Catenin (Uniprot ID P35222) (Homo sapiens, UniProt P35222).
T1 construct: 10 nM full-length beta-Catenin (Uniprot ID P35222)
T1 sequence (P35222 1-781): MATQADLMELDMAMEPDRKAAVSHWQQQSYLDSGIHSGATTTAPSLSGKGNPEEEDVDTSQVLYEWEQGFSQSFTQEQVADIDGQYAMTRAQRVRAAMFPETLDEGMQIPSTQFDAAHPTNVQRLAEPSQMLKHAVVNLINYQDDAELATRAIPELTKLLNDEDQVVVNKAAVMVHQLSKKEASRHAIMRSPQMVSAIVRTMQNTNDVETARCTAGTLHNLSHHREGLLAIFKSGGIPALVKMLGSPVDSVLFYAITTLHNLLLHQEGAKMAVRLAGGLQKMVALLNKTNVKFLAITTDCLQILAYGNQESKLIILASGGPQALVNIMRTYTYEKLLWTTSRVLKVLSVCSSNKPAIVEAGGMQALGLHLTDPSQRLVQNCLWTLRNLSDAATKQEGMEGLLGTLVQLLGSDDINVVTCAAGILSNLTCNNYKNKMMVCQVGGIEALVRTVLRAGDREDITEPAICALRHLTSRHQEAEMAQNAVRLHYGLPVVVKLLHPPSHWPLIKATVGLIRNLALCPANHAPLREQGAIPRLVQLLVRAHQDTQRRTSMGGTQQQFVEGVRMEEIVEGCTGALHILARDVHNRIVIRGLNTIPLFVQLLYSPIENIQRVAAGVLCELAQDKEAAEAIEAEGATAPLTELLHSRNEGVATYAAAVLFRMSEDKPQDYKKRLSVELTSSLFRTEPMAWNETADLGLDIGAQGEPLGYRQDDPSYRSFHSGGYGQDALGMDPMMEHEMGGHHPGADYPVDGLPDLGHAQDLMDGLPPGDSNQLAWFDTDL
Kind of data set: Fluorescence polarization IC50 (beta-catenin / 5FAM-TCF4 10-53 competition). Type of data set: binding. (In general: Polarisation of emitted light reports the rotation of a fluorescent probe.)

The next data set is described as follows: Solubility in PBS. Type of data set: physicochemical. The gist of the method:
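Solubility is derived from HPLC peak areas: the ratio of the PBS supernatant peak to a 50 μM DMSO peptide peak, times 50 uM.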

Where [2] appears, read: FP EC50 (nM), fluorescence polarization, beta-catenin.
Where [3] appears, read: fluorescence polarization, beta-catenin, read-out: FP EC50.

Each structure is given as a SMILES string. In brackets after ≈: the same amount, converted by molar mass. Where two headings read alike, the source gives them in different places.

The chromatographic logD is lipophilicity estimated from chromatographic retention. The term Solubility denotes the concentration that dissolves in the medium under given conditions. Low readings indicate little dissolved substance, high ones much dissolved substance. Molecule `C[C@@H]1NC(=O)[C@H](C)NC(=O)[C@H](CN(CC(=O)O)CC(F)(F)F)NC(=O)[C@H](CC(=O)O)NC(=O)C2(CCCC=CCCCOC(=O)N3CC[C@@](C(=O)N[C@@H](Cc4ccccc4Cl)C(=O)N[C@@H](Cc4csc5ccccc45)C(=O)N[C@@H](CCC(N)=O)C(N)=O)(C3)NC(=O)[C@H]([C@@H](C)O)NC(=O)[C@H](Cc3ccccc3)NC1=O)CCCC=CC[C@]1(CCCN1C(=O)CN=[N+]=[N-])C(=O)N[C@@H](CC(=O)O)C(=O)N[C@@H](CC(C)(C)C)C(=O)N2` (stereo partly drawn) [I-1059, AzAc-PL3-Asp-Npg-B5-Asp-TfeGA-Ala-Ala-Phe-Thr-PyrS2-2C1F-BztA-Gln-NH2] had a chromatographic logD in “CHI Log D procedure” (pH 7.4) of 2.44. The IC50 in data set [1] (setting [2]) was 42 nM. This molecule also showed a Solubility in “Solubility in PBS” of 42 µM (≈ 87.6 µg/mL).
The corresponding values for `C[C@@H]1NC(=O)[C@H](C)NC(=O)[C@H](CC(=O)O)NC(=O)[C@H](CC(=O)O)NC(=O)C2(CCCC=CCCCOC(=O)N3CC[C@@](C(=O)N[C@@H](Cc4ccccc4Cl)C(=O)N[C@@H](Cc4csc5ccccc45)C(=O)N[C@@H](C(N)=O)[C@H](C)O)(C3)NC(=O)[C@H]([C@@H](C)O)NC(=O)[C@H](Cc3ccccc3)NC1=O)CCCC=CC[C@]1(CCCN1C(=O)CN=[N+]=[N-])C(=O)N[C@@H](CC(=O)O)C(=O)N[C@@H](CC(C)(C)C)C(=O)N2` (stereo partly drawn) [I-1060, AzAc-PL3-Asp-Npg-B5-Asp-Asp-Ala-Ala-Phe-Thr-PyrS2-2C1F-BztA-dThr-NH2] are 2.6, 38 nM and 10 µM (≈ 19.5 µg/mL).
In the data set “CHI Log D procedure” (pH 7.4, CHI Log D), `CC(=O)N1CCC[C@]12CC=CCCCC1(CCCC=CCCCOC(=O)N3CC[C@@](C(=O)N[C@@H](Cc4ccccc4Cl)C(=O)N[C@@H](Cc4csc5ccccc45)C(=O)N[C@@H](CCC(N)=O)C(N)=O)(C3)NC(=O)[C@H](CC(C)C)NC(=O)[C@H](Cc3ccccc3)NC(=O)[C@H](C)NC(=O)[C@H](C)NC(=O)[C@H](CCC(=O)O)NC(=O)[C@H](CC(=O)O)NC1=O)NC(=O)[C@H](CC(C)(C)C)NC(=O)[C@H](CC(=O)O)NC2=O` (stereo partly drawn) [I-1063, Ac-PL3-Asp-Npg-B5-Asp-Glu-Ala-Ala-Phe-Leu-PyrS2-2C1F-BztA-Gln-NH2] gave a chromatographic logD of 1.64. In addition, the IC50 in data set [1] (read-out: beta-Catenin FP IC50) worked out at 471 nM. This molecule also gave a Solubility in the data set “Solubility in PBS” (Solubility (uM)) of 43 µM (≈ 84.3 µg/mL).
Turning to `CC(=O)N1CCC[C@]12CC=CCCCC1(CCCC=CCCCOC(=O)N3CC[C@@](C(=O)N[C@@H](Cc4ccccc4Cl)C(=O)N[C@@H](Cc4csc5ccccc45)C(=O)N[C@@H](CO)C(N)=O)(C3)NC(=O)[C@H](CC(C)C)NC(=O)[C@H](Cc3ccccc3)NC(=O)[C@H](C)NC(=O)[C@H](C)NC(=O)[C@H](CC(=O)O)NC(=O)[C@H](CC(=O)O)NC1=O)NC(=O)[C@H](CC(C)(C)C)NC(=O)[C@H](CC(=O)O)NC2=O` (stereo partly drawn) [I-1064, Ac-PL3-Asp-Npg-B5-Asp-Asp-Ala-Ala-Phe-Leu-PyrS2-2C1F-BztA-Ser-NH2], the “CHI Log D” value in “CHI Log D procedure” (pH 7.4) is 1.967. Besides, the IC50 in data set [1] (setting [3]) and in data set [1] (read-out: beta-Catenin FP IC50) was 414 nM each time. In “Solubility in PBS”, the “Solubility” value worked out at 29 µM (≈ 55.2 µg/mL).
For the molecule `CC(=O)N1CCC[C@]12CC=CCCCC1(CCCC=CCCCOC(=O)N3CC[C@@](C(=O)N[C@@H](Cc4ccccc4Cl)C(=O)N[C@@H](Cc4csc5ccccc45)C(=O)N[C@@H](CO)C(N)=O)(C3)NC(=O)[C@H](CC(C)C)NC(=O)[C@H](Cc3ccccc3)NC(=O)[C@H](C)NC(=O)[C@H](C)NC(=O)[C@H](CCC(=O)O)NC(=O)[C@H](CC(=O)O)NC1=O)NC(=O)[C@H](CC(C)(C)C)NC(=O)[C@H](CC(=O)O)NC2=O` (stereo partly drawn) [I-1066, Ac-PL3-Asp-Npg-B5-Asp-Glu-Ala-Ala-Phe-Leu-PyrS2-2C1F-BztA-Ser-NH2], the “CHI Log D” value in the data set “CHI Log D procedure” (pH 7.4) amounted to 2.024. The IC50 in data set [1] (setting [3]) and in data set [1] (read-out: beta-Catenin FP IC50) was 789 nM each time. Moreover, in “Solubility in PBS”, the “Solubility” value stood at 10 µM (≈ 19.2 µg/mL).
With `CC(=O)N1CCC[C@]12CC=CCCCC1(CCCC=CCCCOC(=O)N3CC[C@@](C(=O)N[C@@H](Cc4ccccc4Cl)C(=O)N[C@@H](Cc4csc5ccccc45)C(=O)N[C@H](C(N)=O)[C@@H](C)O)(C3)NC(=O)[C@H](CC(C)C)NC(=O)[C@H](Cc3ccccc3)NC(=O)[C@H](C)NC(=O)[C@H](C)NC(=O)[C@H](CC(=O)O)NC(=O)[C@H](CC(=O)O)NC1=O)NC(=O)[C@H](CC(C)(C)C)NC(=O)[C@H](CC(=O)O)NC2=O` (stereo partly drawn) [I-1068, Ac-PL3-Asp-Npg-B5-Asp-Asp-Ala-Ala-Phe-Leu-PyrS2-2C1F-BztA-Thr-NH2], in the data set “CHI Log D procedure” (pH 7.4), the “CHI Log D” value is recorded as 2.053. Moreover, the IC50 in data set [1] (setting [3]) and in data set [1] (read-out: beta-Catenin FP IC50) was 950 nM throughout. Besides, in the data set “Solubility in PBS”, the “Solubility” value worked out at 13 µM (≈ 24.9 µg/mL).
In the case of `CC(=O)N1CCC[C@]12CC=CCCCC1(CCCC=CCCCOC(=O)N3CC[C@@](C(=O)N[C@@H](Cc4ccccc4Cl)C(=O)N[C@@H](Cc4csc5ccccc45)C(=O)N[C@H](C(N)=O)[C@@H](C)O)(C3)NC(=O)[C@H](CC(C)C)NC(=O)[C@H](Cc3ccccc3)NC(=O)[C@H](C)NC(=O)[C@H](C)NC(=O)[C@H](CC(=O)O)NC(=O)[C@H](CC(=O)O)NC1=O)NC(=O)[C@H](CC(C)(C)C)NC(=O)[C@H](CC(=O)O)NC2=O` (stereo partly drawn) [I-1069, Ac-PL3-Asp-Npg-B5-Asp-Asp-Ala-Ala-Phe-Leu-PyrS2-2C1F-BztA-Thr-NH2], the “CHI Log D” value in “CHI Log D procedure” (pH 7.4) was determined as 2.113. In addition, the IC50 in data set [1] (setting [3]) and in data set [1] (read-out: beta-Catenin FP IC50) was 920 nM in each case. In addition, the “Solubility” value in the data set “Solubility in PBS” was determined as 10 µM (≈ 19.2 µg/mL).
Turning to `CC(=O)N1CCC[C@]12CC=CCCCC1(CCCC=CCCCOC(=O)N3CC[C@@](C(=O)N[C@@H](Cc4ccccc4Cl)C(=O)N[C@@H](Cc4csc5ccccc45)C(=O)N[C@H](C(N)=O)[C@@H](C)O)(C3)NC(=O)[C@H](CC(C)C)NC(=O)[C@H](Cc3ccccc3)NC(=O)[C@H](C)NC(=O)[C@H](C)NC(=O)[C@H](CCC(=O)O)NC(=O)[C@H](CC(=O)O)NC1=O)NC(=O)[C@H](CC(C)(C)C)NC(=O)[C@H](CC(=O)O)NC2=O` (stereo partly drawn) [I-1070, Ac-PL3-Asp-Npg-B5-Asp-Glu-Ala-Ala-Phe-Leu-PyrS2-2C1F-BztA-Thr-NH2], in “CHI Log D procedure” (pH 7.4), the “CHI Log D” value is 2.135. In addition, the IC50 in data set [1] (setting [3]) and in data set [1] (read-out: beta-Catenin FP IC50) was 1020 nM each time. Besides, the “Solubility” value in “Solubility in PBS” was 10 µM (≈ 19.3 µg/mL).
On to `CC(=O)N1CCC[C@]12CC=CCCCC1(CCCC=CCCCOC(=O)N3CC[C@@](C(=O)N[C@@H](Cc4ccccc4Cl)C(=O)N[C@@H](Cc4csc5ccccc45)C(=O)N[C@H](C(N)=O)[C@@H](C)O)(C3)NC(=O)[C@H](CC(C)C)NC(=O)[C@H](Cc3ccccc3)NC(=O)[C@H](C)NC(=O)[C@H](C)NC(=O)[C@H](CCC(=O)O)NC(=O)[C@H](CC(=O)O)NC1=O)NC(=O)[C@H](CC(C)(C)C)NC(=O)[C@H](CC(=O)O)NC2=O` (stereo partly drawn) [I-1071, Ac-PL3-Asp-Npg-B5-Asp-Glu-Ala-Ala-Phe-Leu-PyrS2-2C1F-BztA-Thr-NH2], for which the “CHI Log D” value in the data set “CHI Log D procedure” (pH 7.4) worked out at 2.218. Further, the IC50 in data set [1] (setting [3]) and in data set [1] (read-out: beta-Catenin FP IC50) was 1260 nM throughout. In addition, the “Solubility” value in “Solubility in PBS” is 33 µM (≈ 63.8 µg/mL).
As for `CC(=O)N1CCC[C@]12CC=CCCCC1(CCCC=CCCCOC(=O)N3CC[C@@](C(=O)N[C@@H](Cc4ccccc4)C(=O)N[C@@H](Cc4csc5ccccc45)C(=O)N[C@@H](CCC(N)=O)C(N)=O)(C3)NC(=O)[C@H](CC(C)C)NC(=O)[C@H](Cc3ccccc3)NC(=O)[C@H](C)NC(=O)[C@H](C)NC(=O)[C@H](CCC(=O)O)NC(=O)[C@H](CC(=O)O)NC1=O)NC(=O)[C@H](CC(C)(C)C)NC(=O)[C@H](CC(=O)O)NC2=O` (stereo partly drawn) [I-1073, Ac-PL3-Asp-Npg-B5-Asp-Glu-Ala-Ala-Phe-Leu-PyrS2-Phe-BztA-Gln-NH2], the “CHI Log D” value in the data set “CHI Log D procedure” (pH 7.4) was found to be 1.831. The IC50 in data set [1] (setting [3]) and in data set [1] (read-out: beta-Catenin FP IC50) was 409 nM in each case. Moreover, the “Solubility” value in “Solubility in PBS” came out at 31 µM (≈ 59.7 µg/mL).
As to `CC(=O)N1CCC[C@]12CC=CCCCC1(CCCC=CCCCOC(=O)N3CC[C@@](C(=O)N[C@@H](Cc4ccccc4)C(=O)N[C@@H](Cc4csc5ccccc45)C(=O)N[C@@H](CCC(N)=O)C(N)=O)(C3)NC(=O)[C@H](CC(C)C)NC(=O)[C@H](Cc3ccccc3)NC(=O)[C@H](C)NC(=O)[C@H](C)NC(=O)[C@H](CCC(=O)O)NC(=O)[C@H](CC(=O)O)NC1=O)NC(=O)[C@H](CC(C)(C)C)NC(=O)[C@H](CC(=O)O)NC2=O` (stereo partly drawn) [I-1074, Ac-PL3-Asp-Npg-B5-Asp-Glu-Ala-Ala-Phe-Leu-PyrS2-Phe-BztA-Gln-NH2], in “CHI Log D procedure” (pH 7.4), the “CHI Log D” value is 1.92. The IC50 in data set [1] (setting [3]) and in data set [1] (read-out: beta-Catenin FP IC50) was 498 nM in each case. Further, the “Solubility” value in “Solubility in PBS” was 34 µM (≈ 65.5 µg/mL).
